Measurements published in the NIST ThermoML archive (doi:10.1016/j.fluid.2012.08.003).
“And” between values parts separate entries of the source, which are not always exact repeats. Equal entries are not always repeated. ± gives the expanded uncertainty stated by the source.

Details: Liquid, Transpiration method

CCCCCCCOC=O [heptyl methanoate]
Details	vapor or sublimation pressure
276.1 K	0.0215 ± 0.0011 kPa
277.6 K	0.02468 ± 0.0012 kPa
278.6 K	0.02656 ± 0.0013 kPa
280.4 K	0.03187 ± 0.0016 kPa
283.3 K	0.04168 ± 0.0021 kPa
288.3 K	0.06125 ± 0.0031 kPa
293.2 K	0.0889 ± 0.0044 kPa and 0.08971 ± 0.0045 kPa
293.3 K	0.08835 ± 0.0044 kPa
298.3 K	0.13 ± 0.0065 kPa and 0.1304 ± 0.0065 kPa
303.3 K	0.183 ± 0.0092 kPa
308.2 K	0.257 ± 0.013 kPa
311 K	0.3176 ± 0.016 kPa
313.3 K	0.3549 ± 0.018 kPa
316.4 K	0.4359 ± 0.022 kPa

CCCCCCOC=O [hexyl methanoate]
Details	vapor or sublimation pressure
275.4 K	0.07241 ± 0.0036 kPa
278.5 K	0.09094 ± 0.0046 kPa
283.3 K	0.1319 ± 0.0066 kPa
288.2 K	0.1935 ± 0.0097 kPa
293.3 K	0.2694 ± 0.014 kPa
293.4 K	0.2753 ± 0.014 kPa
298.4 K	0.4056 ± 0.02 kPa and 0.4085 ± 0.02 kPa
303.2 K	0.5577 ± 0.028 kPa
303.3 K	0.5448 ± 0.027 kPa
308.3 K	0.7473 ± 0.037 kPa and 0.7588 ± 0.038 kPa
313.4 K	1.016 ± 0.051 kPa and 1.013 ± 0.051 kPa

CCCCCCOC(=O)CC [hexyl propanoate]
Details	vapor or sublimation pressure
278.3 K	0.01764 ± 0.00088 kPa
280.7 K	0.0221 ± 0.0011 kPa
283.4 K	0.02827 ± 0.0014 kPa
285.8 K	0.03417 ± 0.0017 kPa
288.2 K	0.04354 ± 0.0022 kPa
298.4 K	0.09932 ± 0.005 kPa
303.2 K	0.1369 ± 0.0069 kPa and 0.1363 ± 0.0068 kPa
308.2 K	0.2024 ± 0.01 kPa
313.3 K	0.2793 ± 0.014 kPa
318.5 K	0.3993 ± 0.02 kPa
323.4 K	0.5422 ± 0.027 kPa
326.4 K	0.6804 ± 0.034 kPa
328.4 K	0.7646 ± 0.038 kPa
330.6 K	0.8602 ± 0.043 kPa
333.3 K	0.9961 ± 0.05 kPa

CCCCCCCCOC=O [octyl methanoate]
Details	vapor or sublimation pressure
283.3 K	0.01298 ± 0.0026 kPa
285.7 K	0.01585 ± 0.0032 kPa
288.2 K	0.01973 ± 0.004 kPa
290.8 K	0.02392 ± 0.0049 kPa
293.3 K	0.02964 ± 0.006 kPa
298.4 K	0.04462 ± 0.0091 kPa
303.2 K	0.0622 ± 0.013 kPa and 0.06388 ± 0.013 kPa
308.2 K	0.09465 ± 0.019 kPa
313.5 K	0.1368 ± 0.028 kPa
318.5 K	0.1894 ± 0.038 kPa
323.5 K	0.2656 ± 0.054 kPa
328.4 K	0.3665 ± 0.074 kPa
331.3 K	0.4318 ± 0.088 kPa
333.4 K	0.4943 ± 0.1 kPa
335.3 K	0.5488 ± 0.11 kPa
338.3 K	0.6635 ± 0.13 kPa

CCCCCCCCOC(=O)CC [octyl propanoate]
Details	vapor or sublimation pressure [kPa]
293.3 K	0.00465 ± 0.00023
295.7 K	0.00575 ± 0.00029
298.4 K	0.00732 ± 0.00037
300.3 K	0.00883 ± 0.00044
303.3 K	0.01129 ± 0.00057
308.3 K	0.0173 ± 0.00087
313.4 K	0.02656 ± 0.0013
318.5 K	0.0387 ± 0.0019
323.4 K	0.0541 ± 0.0027
328.5 K	0.08043 ± 0.004
333.3 K	0.1125 ± 0.0056
338.3 K	0.155 ± 0.0077
340.3 K	0.176 ± 0.0088
343 K	0.2098 ± 0.01
346.4 K	0.2681 ± 0.013
348.4 K	0.2952 ± 0.015

CCCCCOC(C)=O [pentyl ethanoate]
Details	vapor or sublimation pressure
274.2 K	0.08539 ± 0.0043 kPa
274.3 K	0.08709 ± 0.0044 kPa
275.6 K	0.0953 ± 0.0048 kPa and 0.09555 ± 0.0048 kPa
278.2 K	0.1145 ± 0.0057 kPa
280.8 K	0.1396 ± 0.007 kPa
283.2 K	0.1683 ± 0.0084 kPa
288.2 K	0.2413 ± 0.012 kPa
293.3 K	0.343 ± 0.017 kPa
298.4 K	0.4754 ± 0.024 kPa
303.3 K	0.658 ± 0.033 kPa
306.7 K	0.807 ± 0.04 kPa
308.2 K	0.9035 ± 0.045 kPa
310.6 K	1.031 ± 0.052 kPa
313.4 K	1.219 ± 0.061 kPa

CCCCCOC=O [pentyl methanoate]
Details	vapor or sublimation pressure
274.2 K	0.2283 ± 0.011 kPa
274.3 K	0.2293 ± 0.011 kPa
275.7 K	0.2518 ± 0.013 kPa
278.3 K	0.3006 ± 0.015 kPa and 0.3046 ± 0.015 kPa
281 K	0.37 ± 0.019 kPa and 0.3692 ± 0.018 kPa
283.2 K	0.4349 ± 0.022 kPa
288.2 K	0.61 ± 0.031 kPa
293.3 K	0.8452 ± 0.042 kPa
298.4 K	1.161 ± 0.058 kPa
303.3 K	1.571 ± 0.079 kPa
305.6 K	1.779 ± 0.089 kPa
308 K	2.045 ± 0.1 kPa
310.7 K	2.374 ± 0.12 kPa
313.3 K	2.757 ± 0.14 kPa

CCCCCOC(=O)CC [pentyl propanoate]
Details	vapor or sublimation pressure [kPa]
274.1 K	0.02995 ± 0.0015
275.5 K	0.03342 ± 0.0017
278.3 K	0.04139 ± 0.0021
280.9 K	0.05087 ± 0.0026
283.4 K	0.06315 ± 0.0032
288.3 K	0.09403 ± 0.0047
293.3 K	0.1374 ± 0.0069
298.4 K	0.1984 ± 0.0099
303.3 K	0.2789 ± 0.014
308.2 K	0.3925 ± 0.02
313.4 K	0.5328 ± 0.027
318.5 K	0.7195 ± 0.036
320.7 K	0.8423 ± 0.042
323.4 K	0.9568 ± 0.048
325.6 K	1.098 ± 0.055
328.4 K	1.293 ± 0.065
